Measured values published in US11142527B2, “Dihydropyrimidine compounds and uses thereof in medicine” (SUNSHINE LAKE PHARMA CO., LTD., priority 2017, dated 2021).

Each molecule was assayed on HBV (assay: Test of anti HBV activity in vitro (viral DNA by qPCR)). Details: Hepatitis B virus; HepG2.2.15 cells, viral DNA in cell culture supernatant by qPCR; read-out: EC50 values of the compound of the invention on viral replication.
Format: cell-based
Description: Test 1: Test Method of Calculating Anti HBV EC50
HBV Cell Line and Culture Conditions
HepG2.2.15 (SELLS, PNAS, 1987 and SELLS, JV, 1988) chromosomes have an integrated complete HBV genome, and stably express viral RNA and viral protein. HepG2.2.15 cells can secrete mature HBV particles, HBsAg and HBeAg, to medium. HepG2.2.15 cells were cultured in DMEM containing 10% fetal bovine serum, 100 U/mL penicillin, 100 U/mL streptomycin, 1% non essential amino acid, 1 mM sodium pyruvate and 300 μg/mL G418.
Viral particles DNA secreted from HepG2.2.15 cells can be quantified by qPCR, and the effect of the compound on viral replication can be detected.
Test of Anti HBV Activity In Vitro
8000 HepG 2.2.15 cells per well were seeded into a 96-well plate, the plate was cultured at 37° C. and 5% CO2 for 3 days till the cells grew to full wells. Old liquid medium can be removed and replaced with new medium (200 μL) on day 0.
Formulating the compound and treating the cells in the experiment of anti virus: the compound was dissolved in DMSO to a concentration of 30 mM, and then the compound solution was diluted with DMSO to a concentration of 800 μM, and then eight dilutions at 4 fold were performed, the highest concentration is 800 μM. The serial diluted compound was added to the above plate at 1 μL per well, the highest final concentration in the experiment is 4 μM (200 fold dilution). TDF (tenofovir dipiroxil fumarate, Selleck, Cat S1400) has a highest concentration of 4 μM as a positive control. 1 μL of DMSO was added in to the […] at a final concentration of 0.5%, TDF was added in to the […] at a final concentration of 1 μM.
Detection of Viral Genomic DNA by aPCR
Primer: HBV-For-202, […]; HBV-Rev-315, […]. Copies of virus can be calculated using a standard curve plotted by using plasmid containing HBV genome and using SYBR Premix Ex Taq II—Takara DRR081S kit and 1 μL cell culture supernatant as a template. EC50 values of the compound on viral replication were calculated by a four parametric nonlinear regression model using Graphpad Prism 5 software to manage concentration—viral copy number.
With COC(=O)C1=C(CN2CCN3C(=O)N(C(C)(C)c4ccc(-c5ccc(C(=O)O)cc5)cc4)C[C@@H]3C2)NC(c2nccs2)=N[C@H]1c1ccc(F)cc1Cl (stereo in doubt) [Example 11, 4′-(2-((S)-7-(((R)-6-(2-chloro-4-fluorophenyl)-5-(methoxycarbonyl)-2-(thiazol-2-yl)-3,6-dihydropyrimidin-4-yl)methyl)-3-oxohexahydroimidazo[1,5-a]pyrazin-2(3H)-yl)prop-2-yl)-[1,1′-diphenyl]-4-carboxylic acid] the EC50 was 32.5 nM.
In the case of COC(=O)C1=C(CN2CCN3C(=O)N(CC#Cc4ccc(C(=O)O)cc4)C[C@@H]3C2)NC(c2nccs2)=N[C@H]1c1ccc(F)cc1Cl [Example 1, 4-(3-((S)-7-(((R)-6-(2-chloro-4-fluorophenyl)-5-(methoxycarbonyl)-2-(thiazol-2-yl)-3,6-dihydropyrimidin-4-yl)methyl)-3-oxohexahydroimidazo[1,5-a]pyrazin-2(3H)-yl)prop-1-yn-1-yl)benzoic acid], the EC50 is reported as 8.45 nM.
With COC(=O)C1=C(CN2CCN3C(=O)N(CC#Cc4cccc(C(=O)O)c4)C[C@@H]3C2)NC(c2nccs2)=N[C@H]1c1ccc(F)cc1Cl [Example 2, 3-(3-((S)-7-(((R)-6-(2-chloro-4-fluorophenyl)-5-(methoxycarbonyl)-2-(thiazol-2-yl)-3,6-dihydropyrimidin-4-yl)methyl)-3-oxohexahydroimidazo[1,5-a]pyrazin-2(3H)-yl)prop-1-yn-1-yl)benzoic acid] the EC50 was 10.4 nM.
COC(=O)C1=C(CN2CCN3C(=O)N(CC#Cc4ccc(C(=O)O)cc4F)C[C@@H]3C2)NC(c2nccs2)=N[C@H]1c1ccc(F)cc1Cl [Example 4, 4-(3-((S)-7-(((R)-6-(2-chloro-4-fluorophenyl)-5-(methoxycarbonyl)-2-(thiazol-2-yl)-3,6-dihydropyrimidin-4-yl)methyl)-3-oxohexahydroimidazo[1,5-a]pyrazin-2(3H)-yl)prop-1-yn-1-yl)-3-fluorobenzoic acid] showed an EC50 of 19.8 nM.
Molecule COC(=O)C1=C(CN2CCN3C(=O)N(c4ccc(Oc5ccc(C(=O)O)cc5)cc4)C[C@@H]3C2)NC(c2nccs2)=N[C@H]1c1ccc(F)cc1Cl [Example 6, 4-(4-((S)-7-(((R)-6-(2-chloro-4-fluorophenyl)-5-(methoxycarbonyl)-2-(thiazol-2-yl)-3,6-dihydropyrimidin-4-yl)methyl)-3-oxohexahydroimidazo[1,5-a]pyrazin-2(3H)-yl)phenoxy) benzoic acid] has an EC50 of 14 nM.
Molecule COC(=O)C1=C(CN2CCN3C(=O)N(c4ccc(Oc5ccc(C(=O)O)cc5)nc4)C[C@@H]3C2)NC(c2nccs2)=N[C@H]1c1ccc(F)cc1Cl [Example 7, 4-((5-((S)-7-(((R)-6-(2-chloro-4-fluorophenyl)-5-(methoxycarbonyl)-2-(thiazol-2-yl)-3,6-dihydropyrimidin-4-yl)methyl)-3-oxohexahydroimidazo[1,5-a]pyrazin-2(3H)-yl)pyridin-2-yl)oxy)benzoic acid] has an EC50 of 8.78 nM.
For COC(=O)C1=C(CN2CCN3C(=O)N(Cc4ccc(-c5ccc(C(=O)O)cc5)cc4)C[C@@H]3C2)NC(c2nccs2)=N[C@H]1c1ccc(F)cc1Cl [Example 10, 4′-(((S)-7-(((R)-6-(2-chloro-4-fluorophenyl)-5-(methoxycarbonyl)-2-(thiazol-2-yl)-3,6-dihydroprimidin-4-yl)methyl)-3-oxohexahydroimidazo[1,5-a]pyrazin-2(3H)-yl)methyl)-[1, 1′-diphenyl]-4-carboxylic acid], the EC50 was 19.9 nM.
COC(=O)C1=C(CN2CCN3C(=O)N(c4ccc(-c5ccc(C(=O)O)cc5)cc4)C[C@@H]3C2)NC(c2nccs2)=N[C@H]1c1ccc(F)cc1Cl [Example 12] showed an EC50 of 13 nM.
With COC(=O)C1=C(CN2CCN3C(=O)N(c4cc(F)cc(Oc5ccc(C(=O)O)cc5F)c4)C[C@@H]3C2)NC(c2nccs2)=N[C@H]1c1ccc(F)cc1Cl [Example 13, 4-(3-((S)-7-(((R)-6-(2-chloro-4-fluorophenyl)-5-(methoxycarbonyl)-2-(thiazol-2-yl)-3,6-dihydropyrimidin-4-yl)methyl)-3-oxohexahydroimidazo[1,5-a]pyrazin-2(3H)-yl)-5-fluorophenoxy)-3-fluorobenzoic acid] the EC50 was 22.1 nM.
For COC(=O)C1=C(CN2CCN3C(=O)N(c4ccc(Oc5ccc(C(=O)O)cc5F)cc4F)C[C@@H]3C2)NC(c2nccs2)=N[C@H]1c1ccc(F)cc1Cl [Example 14, 4-(4-((S)-7-(((R)-6-(2-chloro-4-fluorophenyl)-5-(methoxycarbonyl)-2-(thiazol-2-yl)-3,6-dihydropyrimidin-4-yl)methyl)-3-oxohexahydroimidazo[1,5-a]pyrazin-2(3H)-yl)-3-fluorophenoxy)-3-fluorobenzoic acid], the EC50 was 22.7 nM.
COC(=O)C1=C(CN2CCN3C(=O)N(c4nc(-c5ccc(C(=O)O)cc5)cs4)C[C@@H]3C2)NC(c2nccs2)=N[C@H]1c1ccc(F)cc1Cl [Example 15, 4-(2-((S)-7-(((R)-6-(2-chloro-4-fluorophenyl)-5-(methoxycarbonyl)-2-(thiazol-2-yl)-3,6-dihydropyrimidin-4-yl)methyl)-3-oxohexahydroimidazo[1,5-a]pyrazin-2(3H)-yl)thiazol-4-yl)benzoic acid] showed an EC50 of 10.8 nM.
With COC(=O)C1=C(CN2CCN3C(=O)N(c4ccc(Oc5cccc(C(=O)O)c5)cn4)C[C@@H]3C2)NC(c2nccs2)=N[C@H]1c1ccc(F)cc1Cl [Example 16, 3-((6-((S)-7-(((R)-6-(2-chloro-4-fluorophenyl)-5-(methoxycarbonyl)-2-(thiazol-2-yl)-3,6-dihydropyrimidin-4-yl)methyl)-3-oxohexahydroimidazo[1,5-a]pyrazin-2(3H)-yl)pyridin-3-yl)oxy)benzoic acid] the EC50 was 12 nM.
With COC(=O)C1=C(CN2CCN3C(=O)N(c4ccc(-c5ccc(C(C)(C)C(=O)O)cc5)cc4)C[C@@H]3C2)NC(c2nccs2)=N[C@H]1c1ccc(F)cc1Cl [Example 18, 2-(4′-((S)-7-(((R)-6-(2-chloro-4-fluorophenyl)-5-(methoxycarbonyl)-2-(thiazol-2-yl)-3,6-dihydropyrimidin-4-yl)methyl)-3-oxohexahydroimidazo[1,5-a]pyrazin-2(3H)-yl)-[1,1′-diphenyl]-4-yl)-2-methyl propionic acid] the EC50 was 13 nM.
Work on COC(=O)C1=C(CN2CCN3C(=O)N(c4ccc(N5CCC(C(=O)O)CC5)cc4)C[C@@H]3C2)NC(c2nccs2)=N[C@H]1c1ccc(F)cc1Cl [Example 21, 1-(4-((S)-7-(((R)-6-(2-chloro-4-fluorophenyl)-5-(methoxycarbonyl)-2-(thiazol-2-yl)-3,6-dihydropyrimidin-4-yl)methyl)-3-oxohexahydroimidazo[1,5-a]pyrazin-2(3H)-yl)phenyl) piperidine-4-carboxylic acid] yielded an EC50 of 5 nM.
In the case of COC(=O)C1=C(CN2CCN3C(=O)N(c4ccc(C5(C(=O)O)CC5)cc4)C[C@@H]3C2)NC(c2nccs2)=N[C@H]1c1ccc(F)cc1Cl [Example 27, 1-(4-((S)-7-(((R)-6-(2-chloro-4-fluorophenyl)-5-(methoxycarbonyl)-2-(thiazol-2-yl)-3,6-dihydropyrimidin-4-yl)methyl)-3-oxohexahydroimidazo[1,5-a]pyrazin-2(3H)-yl)phenyl)cyclopropane carboxylic acid], the EC50 is reported as 10 nM.
COC(=O)C1=C(CN2CCN3C(=O)N(c4ccc(C5(C(=O)O)CCC5)cc4)C[C@@H]3C2)NC(c2nccs2)=N[C@H]1c1ccc(F)cc1Cl [Example 28, 1-(4-((S)-7-(((R)-6-(2-chloro-4-fluorophenyl)-5-(methoxycarbonyl)-2-(thiazol-2-yl)-3,6-dihydropyrimidin-4-yl)methyl)-3-oxohexahydroimidazo[1,5-a]pyrazin-2(3H)-yl)phenyl)cyclobutane carboxylic acid] gave an EC50 of 4 nM.
In the case of COC(=O)C1=C(CN2CCN3C(=O)N(c4ccc(C5(C(=O)O)CCCC5)cc4)C[C@@H]3C2)NC(c2nccs2)=N[C@H]1c1ccc(F)cc1Cl [Example 29, 1-(4-((S)-7-(((R)-6-(2-chloro-4-fluorophenyl)-5-(methoxycarbonyl)-2-(thiazol-2-yl)-3,6-dihydroprimidin-4-yl)methyl)-3-oxohexahydroimidazo[1,5-a]pyrazin-2(3H)-yl)phenyl) cyclopentane carboxylic acid], the EC50 is reported as 6 nM.
Molecule COC(=O)C1=C(CN2CCN3C(=O)N(c4ccc(C5(C(=O)O)CCCCC5)cc4)C[C@@H]3C2)NC(c2nccs2)=N[C@H]1c1ccc(F)cc1Cl [Example 30, 1-(4-((S)-7-(((R)-6-(2-chloro-4-fluorophenyl)-5-(methoxycarbonyl)-2-(thiazol-2-yl)-3,6-dihydropyrimidin-4-yl)methyl)-3-oxohexahydroimidazo[1,5-a]pyrazin-2(3H)-yl)phenyl) cyclohexanecarboxylic acid] has an EC50 of 9 nM.
